In paper PMC7777204, “Locking mixed-lineage kinase domain-like protein in its auto-inhibited state prevents necroptosis” (Proceedings of the National Academy of Sciences of the …, 2020):
Residue numbers refer to the chain shown, from its start.

Columns and labels:
Format in all cases: biochemical
[1] = target: T1, MLKL F148A executioner domain (Homo sapiens, UniProt Q8NB16, F148A); assay: Functional NMR assay (detachment of α-helix 6), F148A variant
T1 construct: 80 µM MLKL N-terminal executioner domain (residues 1 to 154) was used; GST (thrombin cleavage site) (cleaved yes)
T1 sequence (Q8NB16 1-154 F148A): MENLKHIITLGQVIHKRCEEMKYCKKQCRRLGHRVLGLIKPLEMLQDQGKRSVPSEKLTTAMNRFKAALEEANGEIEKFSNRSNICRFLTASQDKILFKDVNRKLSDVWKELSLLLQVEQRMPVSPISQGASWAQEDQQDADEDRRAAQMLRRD
Source text: To test the significance of the additional interaction between α-helix 6 and the four-helix bundle provided by the xanthine compounds stacking to the phenyl ring of Phe148, we used a described functional NMR assay ([12]). Binding of phytic acid (IP6) and the detergent β-D-nonylmaltoside (NM) led to the detachment of α-helix 6, which can be monitored in ^1H,^15N-correlation spectra by the altered chemical shift of the Hε1–Nε1 correlation of Trp133 and the backbone N–H correlation of Ala141 ([12]). […] Adding 12 mM NM or 500 µM IP6 led to the appearance of a second very weak peak reporting on the detached α-helix 6 with a population of the activated state (pact) of 1% and 4%, respectively (Fig. 3). […]
Fig. 3. […] The spectra depicted in A are measured with the WT protein and in B with the F148A variant. […] The asterisk means that no active conformation could be detected. Double asterisks indicate data not determined.
For the functional NMR assay ^1H,^15N-correlation spectra were recorded on a Bruker Avance III HD 600-MHz NMR spectrometer equipped with a cryogenic QCI probe in 2.5-mm NMR tubes at 298 K. Spectra were recorded with 64 complex points in the indirect dimension, 96 scans, and an interscan delay of 2 s. […] Spectra were analyzed, and peaks were integrated in CcpNnmr analysis ([39]).

MLKL executioner domain = target: T2, MLKL executioner domain (Homo sapiens, UniProt Q8NB16); assay: Real-time NMR of MLKL oligomerization; settings: after 48 h, 50 µM IP6, 12 mM NM, 500 µM Cpd 3, 300 µM MLKL, 298 K
T2 construct: 80 µM MLKL N-terminal executioner domain (residues 1 to 154) was used; GST (thrombin cleavage site) (cleaved yes)
T2 sequence (Q8NB16 1-154): T1 sequence (Q8NB16 1-154 F148A) with A148F
Method: While MLKL was stable in the presence of either 500 µM IP6 or 12 mM NM (SI Appendix, Fig. S13), dispersed peaks were disappearing over time in the presence of the combination of the two. Monitoring this decay by real-time NMR, a series of ^1H,^15N-correlation spectra were recorded in the presence of 12 mM NM and 50 µM IP6. The latter concentration was reduced to slow down the process to enable real-time NMR detection, because at 500 µM IP6 concentration, 86% activation could be observed in the functional assay in the ^1H,^15N-correlation spectrum measured directly after sample preparation. The loss of peak intensity can be fitted with a biexponential decay with a fast time constant (Tf) of 0.35 ± 0.07 h and a slow time constant (Ts) of 10.0 ± 1.0 h. […] In addition to the known peaks reporting on the active state with α-helix 6 being detached (Ala141 N,H and Trp133 Nε1,Hε1), peaks in the random coil region of the spectrum appeared (Fig. 4A). […] Secondary chemical shifts confirmed that α-helix 6 becomes largely unfolded and has, according to ^15N-relaxation data, increased mobility (τC = 10 ns) and reduced rigidity (heteronuclear NOE around zero) in the activated state (SI Appendix, Fig. S10).
After 48 h, these signals decayed only to ∼70% intensity. Cross-peaks reporting on the unfolded, detached α-helix 6 likewise appeared more slowly in the presence of Cpd 3 (Fig. 4 B–D). […]

[2] = target: T3, human MLKL executioner domain (WT) (Homo sapiens, UniProt Q8NB16); assay: Functional NMR assay (detachment of α-helix 6), WT; settings: WT
T3 construct: 80 µM MLKL N-terminal executioner domain (residues 1 to 154) was used; GST (thrombin cleavage site) (cleaved yes)
T3 sequence (Q8NB16 1-154): T1 sequence (Q8NB16 1-154 F148A) with A148F
Source text: To test the significance of the additional interaction between α-helix 6 and the four-helix bundle provided by the xanthine compounds stacking to the phenyl ring of Phe148, we used a described functional NMR assay ([12]). Binding of phytic acid (IP6) and the detergent β-D-nonylmaltoside (NM) led to the detachment of α-helix 6, which can be monitored in ^1H,^15N-correlation spectra by the altered chemical shift of the Hε1–Nε1 correlation of Trp133 and the backbone N–H correlation of Ala141 ([12]). […] Adding 12 mM NM or 500 µM IP6 led to the appearance of a second very weak peak reporting on the detached α-helix 6 with a population of the activated state (pact) of 1% and 4%, respectively (Fig. 3). […] Combining 12 mM NM and 500 µM IP6 induced a dramatic increase of the population of the detached state (pact 86%). […] To further validate the importance of the π–π stacking interaction between the xanthine and Phe148 in α-helix 6, we carried out the functional NMR assay with the F148A-mutated variant of MLKL. The removal of the phenyl group induced significant CSPs localized in close proximity to the mutation site, due to the removal of ring currents and, therefore, strong electronic changes. […] MLKL F148A was more sensitive to the addition of 12 mM NM, 500 µM IP6, or the combination thereof. In the spectra in the presence of NM and the combination of NM and IP6, a third Trp133 peak appeared, most likely reporting on a state similar to the active state. […] Thus, the stacking interaction of the xanthine core to Phe148 is vital for the inhibitory activity of these MLKL inhibitors.
Fig. 3. (A and B) The region of the NMR ^1H,^15N-correlation spectra of the MLKL executioner domain (protein concentration: 80 µM) containing the cross-peaks of Trp133 Nε1–Hε1 in the auto-inhibited state where α-helix 6 is attached to the four-helix bundle (inact. state) and in the active, detached state (act. state) are shown. The unliganded state is depicted in black, with 12 mM NM in cyan; 500 µM IP6 in orange; 500 µM Cpd 3 in blue; 12 mM NM and 500 µM IP6 in red; and 12 mM NM, 500 µM IP6, and 500 µM Cpd 3 in green. The spectra depicted in A are measured with the WT protein and in B with the F148A variant. […] Dark gray bars correspond to the WT, while light gray bars correspond to the F148A variant. The asterisk means that no active conformation could be detected. Double asterisks indicate data not determined.
For the functional NMR assay ^1H,^15N-correlation spectra were recorded on a Bruker Avance III HD 600-MHz NMR spectrometer equipped with a cryogenic QCI probe in 2.5-mm NMR tubes at 298 K. Spectra were recorded with 64 complex points in the indirect dimension, 96 scans, and an interscan delay of 2 s. For the samples, 80 µM MLKL N-terminal executioner domain (residues 1 to 154) was used in a 20 mM sodium phosphate buffer at pH 7.5 containing 150 mM sodium chloride and 1 mM TCEP. For the different conditions, either 500 µM IP6, 12 mM NM, or a combination of the two were used. The xanthine compounds were tested at 500 µM, while NSA, due to limited solubility, was tested only at 200 µM, which is sufficient to saturate MLKL. Spectra were analyzed, and peaks were integrated in CcpNnmr analysis ([39]).

Induction of the active state by compound alone ([1]; 500 µM compound alone): small population of the active state | Population of the activated state (pact), α-helix 6 detached ([1]; 12 mM NM + 500 µM IP6 + 500 µM compound): 90% | Remaining intensity of dispersed signals (MLKL executioner domain): ~70% | Population of the activated state (pact), α-helix 6 detached ([2]; 80 µM protein, 12 mM NM + 500 µM IP6 + 500 µM compound, without compound pact 86%): 19% | Induction of the active state by compound alone ([2]; compound alone (Cpd 3 500 µM, NSA 200 µM), no NM/IP6): did not induce the active state
SMILES: Cn1c(=O)c2c(nc(S(C)(=O)=O)n2C)n(CC#Cc2cccc(O)c2)c1=O [Cpd 3]
